Results published in patent US7498408B2, “Ryanodine receptor polypeptides” (E. I. du Pont de Nemours and Company, priority 2002, dated 2009).

Columns and labels:
[1] = biological target: cockroach ryanodine receptor (roach femoral muscle membranes) (Periplaneta americana, UniProt Z9HFG3YSF4); assay: Radioligand displacement ([3H]-GN analog Cpd 1) from roach femoral muscle membranes; details: for IC50: read-out: Displacement IC50 (nM) P. americana, displacement of [3H]-Cpd 1, roach muscle membranes, 60 min at 32° C.; for Radioligand Displacement (P. americana): known ryanodine receptor agents, result in words
cockroach ryanodine receptor (roach femoral muscle membranes), sequence (Z9HFG3YSF4 1-5141): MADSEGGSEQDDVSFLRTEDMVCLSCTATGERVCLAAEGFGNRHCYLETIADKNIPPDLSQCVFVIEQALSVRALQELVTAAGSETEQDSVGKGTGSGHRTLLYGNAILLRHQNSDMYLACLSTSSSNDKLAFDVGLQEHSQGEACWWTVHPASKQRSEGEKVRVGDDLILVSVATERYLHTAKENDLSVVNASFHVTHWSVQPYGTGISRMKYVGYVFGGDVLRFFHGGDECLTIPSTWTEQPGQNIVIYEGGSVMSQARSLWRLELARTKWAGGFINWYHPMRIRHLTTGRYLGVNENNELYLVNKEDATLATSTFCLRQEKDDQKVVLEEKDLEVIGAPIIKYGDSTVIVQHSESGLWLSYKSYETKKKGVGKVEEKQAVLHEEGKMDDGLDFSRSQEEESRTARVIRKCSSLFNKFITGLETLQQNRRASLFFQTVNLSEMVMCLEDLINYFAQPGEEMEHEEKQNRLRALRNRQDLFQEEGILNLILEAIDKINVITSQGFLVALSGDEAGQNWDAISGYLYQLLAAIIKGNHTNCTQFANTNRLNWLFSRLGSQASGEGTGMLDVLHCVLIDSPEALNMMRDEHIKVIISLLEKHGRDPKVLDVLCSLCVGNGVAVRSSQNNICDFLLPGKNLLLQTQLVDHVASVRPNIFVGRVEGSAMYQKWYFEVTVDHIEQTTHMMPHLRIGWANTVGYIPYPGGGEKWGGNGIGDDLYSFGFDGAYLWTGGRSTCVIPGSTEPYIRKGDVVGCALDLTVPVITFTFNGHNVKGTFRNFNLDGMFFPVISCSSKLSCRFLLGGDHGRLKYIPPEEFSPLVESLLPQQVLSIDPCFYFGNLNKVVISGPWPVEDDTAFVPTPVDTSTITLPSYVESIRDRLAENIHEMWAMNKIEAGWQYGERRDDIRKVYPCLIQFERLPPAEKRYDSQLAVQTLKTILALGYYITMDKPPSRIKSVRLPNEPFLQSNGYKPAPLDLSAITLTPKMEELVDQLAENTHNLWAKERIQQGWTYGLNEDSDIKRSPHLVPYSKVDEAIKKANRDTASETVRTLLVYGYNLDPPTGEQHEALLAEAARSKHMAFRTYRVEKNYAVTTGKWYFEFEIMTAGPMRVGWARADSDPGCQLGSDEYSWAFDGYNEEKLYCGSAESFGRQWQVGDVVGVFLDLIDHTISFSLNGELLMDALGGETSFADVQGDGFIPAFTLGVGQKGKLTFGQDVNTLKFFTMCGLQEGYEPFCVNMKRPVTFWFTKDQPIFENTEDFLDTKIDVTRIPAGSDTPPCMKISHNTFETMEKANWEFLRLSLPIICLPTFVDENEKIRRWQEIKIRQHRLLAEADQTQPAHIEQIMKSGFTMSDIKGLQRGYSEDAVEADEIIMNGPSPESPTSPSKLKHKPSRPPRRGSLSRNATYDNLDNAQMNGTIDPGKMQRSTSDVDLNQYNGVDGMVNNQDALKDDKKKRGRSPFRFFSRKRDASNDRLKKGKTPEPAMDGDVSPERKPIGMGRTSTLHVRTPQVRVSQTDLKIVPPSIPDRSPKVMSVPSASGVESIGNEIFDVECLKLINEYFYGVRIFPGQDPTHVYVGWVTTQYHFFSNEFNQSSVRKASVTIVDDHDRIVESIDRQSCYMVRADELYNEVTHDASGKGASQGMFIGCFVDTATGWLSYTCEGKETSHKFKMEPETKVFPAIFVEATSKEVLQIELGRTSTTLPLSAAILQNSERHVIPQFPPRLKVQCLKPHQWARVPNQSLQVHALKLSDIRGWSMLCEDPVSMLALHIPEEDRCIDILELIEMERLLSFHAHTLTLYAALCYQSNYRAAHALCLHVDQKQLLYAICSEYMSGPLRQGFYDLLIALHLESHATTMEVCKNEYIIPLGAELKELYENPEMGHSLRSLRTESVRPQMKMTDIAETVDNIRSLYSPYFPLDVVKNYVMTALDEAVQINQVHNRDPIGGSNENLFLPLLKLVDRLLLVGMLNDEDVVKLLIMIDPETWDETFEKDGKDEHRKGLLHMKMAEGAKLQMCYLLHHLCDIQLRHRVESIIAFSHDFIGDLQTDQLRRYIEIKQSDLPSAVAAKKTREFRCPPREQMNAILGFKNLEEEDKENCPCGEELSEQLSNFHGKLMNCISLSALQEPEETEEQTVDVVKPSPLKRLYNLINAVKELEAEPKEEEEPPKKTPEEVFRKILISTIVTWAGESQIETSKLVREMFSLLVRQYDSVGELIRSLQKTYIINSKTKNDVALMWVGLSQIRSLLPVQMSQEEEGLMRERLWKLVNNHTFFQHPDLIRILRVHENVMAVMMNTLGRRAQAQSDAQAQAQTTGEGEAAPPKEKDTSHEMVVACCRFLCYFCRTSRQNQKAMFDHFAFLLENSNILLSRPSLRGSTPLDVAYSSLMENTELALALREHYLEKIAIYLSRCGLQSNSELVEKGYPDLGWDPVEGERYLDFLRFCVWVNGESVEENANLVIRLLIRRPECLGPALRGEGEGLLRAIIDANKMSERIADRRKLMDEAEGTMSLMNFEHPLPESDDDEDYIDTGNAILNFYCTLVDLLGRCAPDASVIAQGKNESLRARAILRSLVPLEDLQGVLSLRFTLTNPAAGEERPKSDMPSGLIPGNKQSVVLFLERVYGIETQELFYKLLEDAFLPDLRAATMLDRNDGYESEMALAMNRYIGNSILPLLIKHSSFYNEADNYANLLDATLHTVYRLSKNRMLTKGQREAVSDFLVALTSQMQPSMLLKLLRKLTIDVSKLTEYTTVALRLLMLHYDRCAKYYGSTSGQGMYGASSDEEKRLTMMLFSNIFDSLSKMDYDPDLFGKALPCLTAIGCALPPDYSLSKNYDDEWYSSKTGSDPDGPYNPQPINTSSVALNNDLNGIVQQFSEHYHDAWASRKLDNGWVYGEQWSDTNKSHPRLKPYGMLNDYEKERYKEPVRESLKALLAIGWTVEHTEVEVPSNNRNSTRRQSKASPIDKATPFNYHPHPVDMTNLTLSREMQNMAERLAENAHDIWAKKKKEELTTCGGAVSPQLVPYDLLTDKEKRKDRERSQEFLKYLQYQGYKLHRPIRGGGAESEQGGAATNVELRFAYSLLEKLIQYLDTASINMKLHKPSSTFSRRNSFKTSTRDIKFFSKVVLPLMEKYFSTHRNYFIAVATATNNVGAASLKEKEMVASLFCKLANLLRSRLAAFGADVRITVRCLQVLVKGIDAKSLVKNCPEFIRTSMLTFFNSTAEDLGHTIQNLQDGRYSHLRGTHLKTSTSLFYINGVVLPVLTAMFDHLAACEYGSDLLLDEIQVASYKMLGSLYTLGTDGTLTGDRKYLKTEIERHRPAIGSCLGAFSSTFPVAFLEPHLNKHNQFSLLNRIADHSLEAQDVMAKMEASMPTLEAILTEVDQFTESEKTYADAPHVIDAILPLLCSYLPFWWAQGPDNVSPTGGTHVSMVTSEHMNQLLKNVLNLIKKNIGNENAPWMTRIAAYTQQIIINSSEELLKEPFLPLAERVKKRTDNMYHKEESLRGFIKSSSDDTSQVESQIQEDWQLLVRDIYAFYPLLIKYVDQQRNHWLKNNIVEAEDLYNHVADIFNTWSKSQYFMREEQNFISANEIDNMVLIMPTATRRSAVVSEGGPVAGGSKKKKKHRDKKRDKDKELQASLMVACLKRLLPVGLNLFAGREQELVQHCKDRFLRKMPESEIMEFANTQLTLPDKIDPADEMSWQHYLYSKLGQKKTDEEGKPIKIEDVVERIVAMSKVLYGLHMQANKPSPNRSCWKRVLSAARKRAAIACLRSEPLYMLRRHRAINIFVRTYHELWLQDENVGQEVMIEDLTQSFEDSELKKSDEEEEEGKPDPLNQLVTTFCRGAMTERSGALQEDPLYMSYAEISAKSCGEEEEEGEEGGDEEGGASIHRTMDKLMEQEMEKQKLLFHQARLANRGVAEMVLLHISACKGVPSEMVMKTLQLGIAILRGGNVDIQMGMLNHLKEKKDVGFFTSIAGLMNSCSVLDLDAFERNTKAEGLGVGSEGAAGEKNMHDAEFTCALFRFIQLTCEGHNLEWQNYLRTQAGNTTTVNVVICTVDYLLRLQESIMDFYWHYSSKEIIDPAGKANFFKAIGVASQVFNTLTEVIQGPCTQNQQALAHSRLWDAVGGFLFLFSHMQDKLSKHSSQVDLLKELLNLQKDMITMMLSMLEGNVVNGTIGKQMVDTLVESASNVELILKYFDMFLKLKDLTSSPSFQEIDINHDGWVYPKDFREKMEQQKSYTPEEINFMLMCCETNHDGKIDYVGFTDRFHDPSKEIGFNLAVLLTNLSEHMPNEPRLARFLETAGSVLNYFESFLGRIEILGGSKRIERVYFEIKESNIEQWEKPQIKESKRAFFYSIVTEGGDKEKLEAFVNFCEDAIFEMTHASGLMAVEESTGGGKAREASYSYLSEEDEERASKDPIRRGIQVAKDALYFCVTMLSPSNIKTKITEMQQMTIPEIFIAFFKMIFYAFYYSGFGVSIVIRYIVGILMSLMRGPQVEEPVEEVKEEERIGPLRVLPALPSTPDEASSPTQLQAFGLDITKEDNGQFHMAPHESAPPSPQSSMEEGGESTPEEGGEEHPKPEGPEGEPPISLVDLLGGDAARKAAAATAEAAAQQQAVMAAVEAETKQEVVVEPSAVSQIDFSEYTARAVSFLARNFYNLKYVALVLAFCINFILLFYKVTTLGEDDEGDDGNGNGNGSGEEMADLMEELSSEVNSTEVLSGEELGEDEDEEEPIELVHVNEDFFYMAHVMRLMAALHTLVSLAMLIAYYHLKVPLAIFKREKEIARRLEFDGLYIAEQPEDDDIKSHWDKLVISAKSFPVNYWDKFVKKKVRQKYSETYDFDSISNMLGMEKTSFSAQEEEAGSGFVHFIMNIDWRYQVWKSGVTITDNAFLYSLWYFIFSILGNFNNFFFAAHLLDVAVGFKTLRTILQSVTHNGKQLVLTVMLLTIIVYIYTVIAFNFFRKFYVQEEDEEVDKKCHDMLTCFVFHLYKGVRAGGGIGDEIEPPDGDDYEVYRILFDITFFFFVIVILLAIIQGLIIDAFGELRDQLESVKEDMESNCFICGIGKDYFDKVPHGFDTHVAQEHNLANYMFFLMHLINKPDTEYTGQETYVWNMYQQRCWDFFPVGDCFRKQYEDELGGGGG
Method: Mid and hind legs from 6-9 week old cockroaches were excised and immediately placed in liquid nitrogen. Excised legs could be stored at −80° C. for several months, if necessary, prior to further fractionation. Typically, membrane preparations started with approximately 55 g (wet weight) of excised legs. All subsequent steps were carried out at 4° C.
The legs were homogenized on ice using a Polytron (Brinkmann Instruments, Westbury, N.Y.) for 2 min at Setting #3. In order to remove all fragments of cuticle, the homogenate was first passed through two layers of cheesecloth and then through one layer of glass wool overlaid on two layers of cheesecloth. On occasion, the cheesecloth clogged with particulates prior to passing all material through. In such cases, fresh cheesecloth (and glass wool) was used for the remainder of the suspension. […] The supernatant was collected and centrifuged for 30 min at 30,000×gmax. The resulting pellet was resuspended in buffer A (1.5 M KCl, 0.3 M sucrose, 0.5 mM CaCl2, 20 mM Tris-HCl, pH 8.0). The membrane suspension was homogenized by hand (about 25 strokes) using a glass-teflon homogenizer. […] Subsequently, the membrane suspension was adjusted to 4 μg protein/μg by addition of buffer A and then stored in 1 ml aliquots at −80° C.
The assay was begun by addition of 25 μl of roach muscle membranes at 2 μg/μl (prepared by thawing and addition of an equal volume of buffer B), and incubation was carried out for 60 min at 32° C. Assays were carried out in triplicate.
The compound was allowed to pre-incubate with the membranes for 10 min at 32° C. […] Assays were carried out in triplicate.
Following incubation, assays were quenched with ice-cold buffer B and immediately filtered on pre-wefted Unifilter 96 GF/B filter microplates using a Unifilter 96 Harvester (PerkinElmer™, Boston, Mass.). Each assay well was then washed 10 times with buffer B, and collected on the same filter microplate. The filter microplates were then placed in a vacuum oven at 32° C. for 3 h, following which 50 μl of Microscint 0 (PerkinElmer™, Boston, Mass.) was added to each well. Plates were then heat sealed and counted using a Topcount microplate scintillation counter (PerkinElmer™, Boston, Mass.).

[2] = test system: control Sf9 cells without DNA / wild type Sf9; assay: Calcium response in control or wild-type Sf9 cells lacking recombinant receptor; assay type: cell-based, Spodoptera frugiperda; details: for calcium responses in control cells without DNA (FIG. 3): Compound 16 10 and 100 nM
Excerpt: (§1) Several drops of a suspension of recombinant Spodoptera frugiperda cell line, Sf9, transiently expressing insect ryanodine receptors were placed on a poly-L-lysine-coated coverslip and allowed to attach. Cells were then rinsed in physiological saline having the following composition (mM): NaCl 130; KCl 5.4; MgCl2 1.2; CaCl2 1.0; NaHCO3 4.2; NaH2P04 7.3; Glucose 10; Sucrose 63; MES 20; pH 6.3. Cells were then bathed in physiological saline containing the calcium sensitive fluoroprobe, Fura-2 AM (2 μM), and Pluronic F127 (0.002%) for 30 min. Cells were rinsed in standard physiololgical saline for at least 15 min prior to testing. Testing was conducted in standard physiological saline, as the cell lines are devoid of functional voltage-gated calcium channels.
(§2) Imaging studies were conducted using a Nikon Diaphot microscope with a 40× oil immersion objective (NA 1.3) Image acquisition and processing was performed using the MetaFluor™ imaging system from Universal Imaging Corporation (West Chester, Pa.) Calcium calibration was carried out using the Grynkiewicz equation with a dissociation constant (Kd) of 145 nM for Fura-2 (Grynkiewicz et al., 1985). Cell-attached coverslips were placed in a sealed chamber with physiological saline continuously perfused across the cells using a peristaltic pump. Test compounds solubilized in physiological saline were applied by switching the perfusate source.
(§3) For studies involving the stable recombinant Spodoptera frugiperda cell line, Sf9, (other cell lines could also be used such as Sf21, S2, etc) expressing an insect ryanodine receptor from Drosophila melanogaster, or Heliothis virescens (alternatively receptors from other species such as Myzus persicae, Peregrinus maidis, Aphis gossypii, etc) were grown in T75 (or other appropriate sized) flasks in supplemented Grace's insect medium. Cells were maintained in an incubator at 22° C. until testing. Cells were suspension-loaded with the calcium sensitive fluoroprobe, Fura-2 AM (1-2 μM) and Pluronic F127 (0.002%) in culture medium for 30 minutes under agitation. Cells were then centrifuged and the pellet resuspended in physiological saline having the following composition (mM): NaCl 130; KCl 5.4; MgCl2 1.2; CaCl2 1.0; NaHCO3 4.2; NaH2P04 7.3; Glucose 10; Sucrose 63; MES 20; pH 6.3 at approximately 150,000-200,000 cells per well (96-well plate). After a 30 minute equilibration period the cell plate was tested using a Molecular Devices' FlexStation™ system with dual wavelength excitation (340 and 380 nm) and fluorescence emission measured at 510 nm. Test and control samples were added using integrated fluidics and the intracellular calcium monitored over a 2 minute period.

[3] = biological target: T1, recombinant Drosophila melanogaster ryanodine receptor (expressed in Sf9 cells) (Drosophila melanogaster, UniProt Q24498); assay type: cell-based; details: for Calcium Release (D. melanogaster): known ryanodine receptor agents, transiently or stably expressed in Sf9 cells, result in words
T1 construct: His tag + attB1 + Lox footprint (N-terminal vector extension; present only if the Cre-Lox vector was the one used) (N); expressed in transfected cells
Excerpt: as §1
Cell-attached coverslips were placed in a sealed chamber with physiological saline continuously perfused across the cells using a peristaltic pump. Test compounds solubilized in physiological saline were applied by switching the perfusate source.
as §3

[4] = test system: native cockroach ryanodine receptors (in embryonic neuronal cells); assay: Calcium release assay, calcium imaging in primary embryonic cockroach neuronal cells; assay type: cell-based, Periplaneta americana; details: for Calcium Release (P. americana): known ryanodine receptor agents, native receptors in embryonic neuronal cells, result in words
Excerpt: Embryonic neuronal cultures of the American cockroach Periplaneta americana were established, with minor modifications, following the method of Beadle and Lees (1988) (in Cell Culture Approaches to Invertebrate Neuroscience, Academic Press, New York, pp 123-127). Briefly, 26-27-day old oothecae were collected, surface-sterilized and cut open along a line one-third of the distance below the dorsal midline. The heads were removed and placed in Schneider's Drosophila medium (Invitrogen Life Technologies™, Carlsbad, Calif.). Using fine forceps 40 brains were individually removed and placed in a small glass vial containing 700 μl of ‘5+4’ medium (‘5+4’ medium contained 5 parts Schneider's Drosophila medium plus 4 parts roach Basal Medium Eagle, with Earle's salts (BME, Sigma™, St. Louis, Mo.). Roach BME (with Earle's salts) contained 5 parts Hepes (1 M), 1 part penicillin/streptomycin and 44 parts BME (with Earle's salts). ‘5+4’ medium was made fresh and sterile filtered (0.2 μm filter) just prior to use). The brains were dissociated by sequential trituration as follows: 1) brains were passed through a standard Pasteur pipette 10 times; 2) the resulting tissue suspension was passed an additional 5 times through a Pasteur pipet with tip flamed to about half of its original diameter; 3) a final 5 passes were performed using a Pasteur pipet with tip flamed to slightly less than half of its original diameter. A repeat pipettor was used to dispense a 5 μl volume of the resulting suspension into the center of each well of a 96-well, glass-bottom plate previously coated with poly-L-lysine (0.2 mg/ml solution). Cells attached to the bottom of the wells during a 50 min incubation at 27-29° C. 150 ul of a 1:1 mixture of Leibovitz's L-15 medium and Yunker's modified Grace's medium was added, and plates were maintained in a humid incubator at 27-29° C. until use. After cells were allowed to attach wells were filled with a 1:1 mixture of Leibovitz's L-15 medium and Yunker's modified Grace's medium (Leibovitz's L-15 and Grace's medium were obtained from Invitrogen Life Technologies™, Carlsbad, Calif. and Yunker's modified Grace's medium was made with Grace's medium modified by addition of 5 mg L-methionine, 10 mg L-alanine, 182 mg MgCl26H20, 1 g Albumin Fraction V, 7 ml Fetal bovine serum, 10 ml Chick embryo extract, 2 ml Penicillin/Streptomycin, and 2 mg 20-hydroxyecdysone (prepared in ethanol prior to addition) to a final volume of 100 ml and sterile filtered (0.2 μm filter)). Cells were maintained in a high humidity incubator at 29° C. until testing.
Cells were rinsed in standard physiological saline having the following composition (mM): NaCl 190; CaCl2 9; KCl 3.1; probenicid 1; Tris buffer 10; pH 7.2. Cells were then bathed in standard physiological saline containing the calcium sensitive fluoroprobe Fluo4 AM (2 μM) and Pluronic F127 (0.002%) for 45 min. Cells were then rinsed in standard physiological saline for at least 15 min prior to testing. Within the hour prior to testing, standard physiological saline was replaced with standard physiological saline containing the organic cation channel blocker pimozide (10 μM), to inhibit influx of external calcium through voltage-gated calcium channels. The 96-well plate was placed on a PriorTm motorized stage mounted onto a Nikon Diaphot microscope and imaged using a 20× Fluor objective (NA 0.75). Individual wells from the 96-well plate were sequentially excited with light at 495 nm, and the emitted fluorescence at 530 nm was detected using a Hamamatsu ORCA ER digital camera with 2 pixel binning (image size 672×512 pixels).
Acquisition control, image processing and image analysis were conducted using Universal Imaging Corporation's MetaMorph™ imaging software (Universal Imaging, West Chester, Pa.). A series of 3 “control” images were acquired for each well. Experimental compounds were added followed by acquisition of 4 “experimental” images for each well. […]

[5] = test system: recombinant Heliothis virescens ryanodine receptor (expressed in Sf9 cells); assay: Calcium release assay in Sf9 cells expressing recombinant Heliothis virescens ryanodine receptor; assay type: cell-based; details: caffeine 10 mM; for calcium responses, Sf9 stably expressing H. virescens ryanodine receptor (FIG. 5): Compound 14 1 μM, Fura-2 AM imaging
Excerpt: as §1, §2, §3

SMILES | IC50 [1] [nM] | Calcium Release Threshold (nM) P. americana [4] [nM] | further results
Cc1cc(Cl)cc(C(=O)NC(C)C)c1NC(=O)c1cc(Cl)nn1-c1ncccc1Cl [Cpd 16] | < 300 | <300 | calcium responses in control cells without DNA (FIG. 3) ([2]; caffeine 10 mM): No significant calcium responses; Calcium Release Threshold (nM) D. melanogaster [3]: <300 nM; calcium responses, Sf9 transiently expressing D. melanogaster ryanodine receptor (FIG. 3) ([3]; 96 hr post-transfection, caffeine 10 mM, Compound 16 10 and 100 nM): calcium responses elicited
Cc1cccc(C(=O)NC(C)C)c1NC(=O)c1cc(Br)nn1-c1ncccc1Cl [Cpd 7] | < 300 | <300 | –
CNC(=O)c1cccc(C)c1NC(=O)c1cc(C(F)(F)F)nn1-c1ncccc1Cl [Cpd 6] | < 300 | <300 | –
Cc1cccc(C(=O)NC(C)C)c1NC(=O)c1cc(Cl)nn1-c1ncccc1Cl [Cpd 8] | < 300 | <300 | –
Cn1c(=O)c2c(ncn2C)n(C)c1=O [Caffeine] | – | – | cytosolic [Ca2+], Sf9 transiently expressing H. virescens ryanodine receptor (FIG. 4) ([5]; 72 hr post-transfection, Cpd 5 3 μM): increase in cytosolic [Ca^2+]; calcium responses, Sf9 stably expressing H. virescens ryanodine receptor (FIG. 5) [5]: calcium responses elicited; caffeine dose response, wild-type Sf9 cells (FIG. 6) ([2]; Sf9-WT, FlexStation, Fura-2): insensitive; response of lipid only (-DNA) or non-transfected cells ([2]; caffeine 10 mM): do not exhibit significant response; calcium responses in control cells without DNA (FIG. 4) ([2]; caffeine 10 mM, Compound 5 3 μM): No significant calcium responses; calcium responses in control cells without DNA (FIG. 3) ([2]; caffeine 10 mM): No significant calcium responses; Calcium Release (P. americana) [4]: Agonist
Cc1cc(Cl)cc(C(=O)NC(C)C)c1NC(=O)c1cc(Br)nn1-c1ncccc1Cl [Cpd 13] | < 300 | – | –
Cc1cc(Br)cc(C(=O)NCC(C)C)c1NC(=O)c1cc(C(F)(F)F)nn1-c1ccccc1Cl [Cpd 3] | < 300 | – | –
Cc1cc(Cl)cc(C(=O)NC(C)C)c1NC(=O)c1cc(C(F)(F)F)nn1-c1ncccc1Cl [Cpd 10] | < 300 | <300 | –
CNC(=O)c1cc(Br)cc(C)c1NC(=O)c1cc(C(F)(F)F)nn1-c1ncccc1Cl [Cpd 15] | < 300 | <300 | –
Cc1cc(Br)cc(C(=O)NC(C)C)c1NC(=O)c1cc(C(F)(F)F)nn1-c1ncccc1Cl [Cpd 9] | < 300 | <300 | –
CC(C)[C@@]1(O)[C@@H](OC(=O)c2ccc[nH]2)[C@@]2(O)[C@@]3(C)C[C@]4(O)O[C@@]5([C@H](O)[C@@H](C)CC[C@]35O)[C@@]2(O)[C@@]14C [Ryanodine] | – | – | Radioligand Displacement (P. americana) [1]: Inactive; Calcium Release (D. melanogaster) [3]: Antagonist; Calcium Release (P. americana) [4]: Antagonist
COc1cccc2c1C(=O)c1c(O)c3c(c(O)c1C2=O)C[C@@](O)(C(=O)CO)C[C@@H]3O[C@H]1C[C@H](N)[C@H](O)[C@H](C)O1.Cl [Doxorubicin, reference compound] | – | – | Calcium Release (P. americana) [4]: Inactive
Oc1c(Br)cc2[nH]c3cnccc3c2c1Br [Bromoeudistomin D, reference compound] | – | – | Calcium Release (P. americana) [4]: Agonist
[3H]c1cc(C)c(NC(=O)c2cc(C(F)(F)F)nn2-c2ccccc2F)c(C(=O)NC(C)C)c1 [Cpd 1, 1-(2-Fluorophenyl)-N-[2-methyl-4-tritio-6-[[(1-methylethyl)amino]carbonyl]phenyl]-3-(trifluoromethyl)-1H-pyrazole-5-carboxamide] | < 300 | <1000 | Calcium Release Threshold (nM) D. melanogaster [3]: <300 nM
Cc1cc(Br)cc(C(=O)NC(C)C)c1NC(=O)c1cc(Br)nn1-c1ncccc1Cl [Cpd 12] | < 300 | <300 | –
CCNC(=O)c1cc(Br)cc(Br)c1NC(=O)c1cc(C(F)(F)F)nn1-c1ncccc1Cl [Cpd 18] | < 300 | – | –
CNC(=O)c1cc(Cl)cc(C)c1NC(=O)c1cc(C(F)(F)F)nn1-c1ncccc1Cl [Cpd 11] | < 300 | <300 | Calcium Release Threshold (nM) D. melanogaster [3]: <300 nM
Cc1cccc(C(=O)NC(C)C)c1NC(=O)c1cc(C(F)(F)F)nn1-c1ccccc1Cl [Cpd 2] | < 300 | <300 | Calcium Release Threshold (nM) D. melanogaster [3]: <300 nM
CNC(=O)c1cc(Cl)cc(C)c1NC(=O)c1cc(Br)nn1-c1ncccc1Cl [Cpd 14] | < 300 | <300 | calcium responses, Sf9 stably expressing H. virescens ryanodine receptor (FIG. 5) [5]: calcium responses elicited; Calcium Release Threshold (nM) D. melanogaster [3]: <300 nM
N.N.N.N.N.N.N.N.N.N.N.N.N.N.[Cl-].[Cl-].[Cl-].[Cl-].[Cl-].[Cl-].[O-2].[O-2].[Ru+3].[Ru+3].[Ru+4] [Ruthenium Red, reference compound] | – | – | Radioligand Displacement (P. americana) [1]: Displacer; Calcium Release (D. melanogaster) [3]: Antagonist; Calcium Release (P. americana) [4]: Inactive
CNC(=O)c1cc(Cl)cc(C)c1NC(=O)c1cc(Cl)nn1-c1ncccc1Cl [Cpd 17] | < 300 | <300 | –
